# Measured values reported in patent US7794712B2, “Production of mutant strain of Aspergillus fumigatus, method of assay for inhibiting siderophore biosynthesis and diagnostic method for detecting likely Aspergillus fumigatus infection” (priority 2004, dated 2010).
# Where “and” joins values, the source holds several entries; their conditions need not be identical. Equal values may be shown once. Non-standard residues stand in square brackets, D forms with d. Residues, ends and D or L forms follow the SMILES beside them. ξ: configuration not given here. Orn(N5-OH,N5-Ac) = CC(=O)N(O)CCC[C@H](N)C(=O)O; ξOrn(N(OH)Ac) = CC(=O)N(O)CCCC(N)C(=O)O
# Key:
# [1] = system: A. fumigatus wild type (ATCC 13073); experiment: Growth (dry weight) in supplemented GA medium, parental / wild type strain; assay type: cell-based, Aspergillus fumigatus
# Protocol: (§1) In this example the growth of various strains of A. fumigatus was monitored as follows. In a first experiment, A. fumigatus was inoculated into 5 ml volumes of YG medium or 5 ml of modified Grimm-Allen (GA) medium (1 g/L KHSO4, 3 g/L K2HPO4, 3 g/L (NH4)SO4, 20 g/L sucrose, 1 g/L citric acid, 2 mg/L thiamine, 20 μg/L CuSO4, 1 mg/L MnSO4, 5.5 mg/L ZnSO4, 810 mg/L MgSO4, pH 6.9) in 25 ml acid-washed flasks at a concentration of […]. GA medium was supplemented with […] FeCl3 where described. Human serum (male) was obtained from Sigma, stored frozen until use and added to media at a concentration of 10%. DesferriTAF and desferriferricrocin were purified from A. fumigatus cultures as described above and treated with 8-hydroxyquinoline to remove all bound iron. Siderophore solutions were filter-sterilized prior to addition to media.
# (§2) In a second experiment, A. fumigatus was innoculated into 1 ml volumes of YM medium or 1 ml of the modified GA medium described above.
# (§3) Alternatively, dry weights were measured by filtering the contents of each tube through pre-weighed, pre-dried Whatman #1 filters and rinsing thoroughly with distilled water. Filters were oven-dried and re-weighed.
# [2] = system: A. fumigatus ATCC 13073; experiment: Growth of A. fumigatus in MEM made iron limiting with 2,2′-dipyridyl; assay type: cell-based, Aspergillus fumigatus; conditions: MEM (5 ml) with 250 μM 2,2′-dipyridyl; holo-/apotransferrin 25 μM, FeCl3 50 μM
# Text: The inventors have shown that holotransferrin but not apotransferrin supports the growth of A. fumigatus in iron-depleted medium. MEM was made iron limiting by the addition of the iron-chelator 2,2′-dipyridyl.
# [3] = system: A. fumigatus ΔsidA^R; experiment: Growth (dry weight) in supplemented GA medium, rescued strain ΔsidA^R; assay type: cell-based, Aspergillus fumigatus
# Protocol: as §1, §2, §3
# [4] = system: A. fumigatus ΔsidA; experiment: Growth (dry weight) in supplemented GA medium, ΔsidA strain; assay type: cell-based, Aspergillus fumigatus; conditions: for Restoration of growth of ΔsidA in the presence of human serum: 50 μM siderophore
# Protocol: as §1, §2, §3
# [5] = target: human holotransferrin (Homo sapiens, UniProt P02787); assay type: biochemical; conditions: for Affinity of iron removal from holotransferrin: compared with ferrichrome; for Concentration able to remove some iron from holotransferrin / Concentration at which complete absence of holotransferrin was observed: holotransferrin 25 μM, 16 h, 37° C., pH 7.4
# human holotransferrin, sequence (P02787 20-698): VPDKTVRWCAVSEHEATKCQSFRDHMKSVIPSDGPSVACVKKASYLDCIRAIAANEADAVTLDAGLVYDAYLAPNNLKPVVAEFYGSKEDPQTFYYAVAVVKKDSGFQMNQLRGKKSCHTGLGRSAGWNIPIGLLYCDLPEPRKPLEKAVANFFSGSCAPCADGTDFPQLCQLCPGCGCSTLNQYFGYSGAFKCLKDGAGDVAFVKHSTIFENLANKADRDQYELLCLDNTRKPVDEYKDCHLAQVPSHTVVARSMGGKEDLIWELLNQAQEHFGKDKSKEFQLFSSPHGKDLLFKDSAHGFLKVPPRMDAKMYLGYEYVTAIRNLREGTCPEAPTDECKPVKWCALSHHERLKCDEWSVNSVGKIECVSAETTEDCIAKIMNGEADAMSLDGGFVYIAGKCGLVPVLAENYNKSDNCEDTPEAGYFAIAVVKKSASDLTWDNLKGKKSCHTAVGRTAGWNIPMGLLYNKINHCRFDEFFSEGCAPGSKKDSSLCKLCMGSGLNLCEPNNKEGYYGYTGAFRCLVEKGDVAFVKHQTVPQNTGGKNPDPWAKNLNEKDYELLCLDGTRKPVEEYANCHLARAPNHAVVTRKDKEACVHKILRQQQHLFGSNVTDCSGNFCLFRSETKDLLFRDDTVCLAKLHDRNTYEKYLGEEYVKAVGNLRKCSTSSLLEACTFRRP
# Protocol: Purified desferri-siderophores and commercially available ferrichrome were serially diluted to final concentrations of 2.5 mM, 250 μM, 25 μM, 2.5 μM and 250 nM (lanes 1-5, respectively). Siderophores were incubated with 12.5 μM human holo-Tf at 37 degrees for 16 hours. Iron saturation of transferrin was assessed by urea-PAGE (13).
# Holotransferrin also was incubated with commercially available desferriferrichrome for comparison. The iron saturation of transferrin was monitored by urea-PAGE. Desferritriacetylfusarinine C, desferriferricrocin, and desferriferrichrome were diluted to concentrations ranging from 5 mM to 5 μM and incubated with holotransferrin (25 μM) in 50 mM Tris-150 mM NaCl-20 mM NaHCO3 (pH 7.4) buffer for 16 h at 37° C. The extent of iron saturation of transferrin at the end of the incubation period was determined by urea-PAGE.
# [6] = system: A. fumigatus 13073; experiment: Siderophore secretion inhibitor assay (A440 after FeCl3 addition); assay type: cell-based, Aspergillus fumigatus; conditions: 3 days
# Text: In this example 96-well sterile polystyrene filter plates as described above with white Duropore membranes at the base of the plate (Millipore) were used. The plates include a thick plastic layer under the wells, which has a one-way valve function that directs fluid into a receiving 96-well plate when the filter plate is subjected to a vacuum manifold or a centrifugal force. This layer can be peeled off if the membranes are to be sampled (punched) later.
# Cultures were set up in the filter plates, with controls and inhibitors to be tested. After inclubation, culture fluid was pulled into a 96-well receiver plate, using the Beckman centrifuge and a JS 5.3 rotor designed to take 96-well plates. FeCl3 was added to the receiver plates, and A430 (general siderophores) or A440 (max for TAF) was read. Growth was scored in the plate by reading A600.
# To test this method, different antibiotics were used to show inhibition of siderophore production by A. fumigatus 13073, as no inhibitors for the SidA gene product are currently known. Suitable ranges of concentrations of amphotericin B (fungizone), hygromycin, and nystatin were calculated based on the literature. Spores were harvested from A. fumigatus 13073 into PBS Tween, then washed once with PBS and counted. They were then diluted into Neilands' medium (without citrate) to give solutions of 2×10^5 and 2×10^6/ml. 100 μl of 2× spores and 100 μl of 2× antibiotics to yield a volume of 200 μl of Neilands' medium in each well, with the desired final concentrations of spores, 10^5 or 10^6/ml.
# Antibiotics were prepared as follows. Amphotericin B came as a liquid solution, 250 µg/ml. […] Therefore 0, 0.125, 0.25, 0.5, 1 and […] final concentration was used. Nystatin was stored it in ˜1 mg dry aliquots at −20 C, and was prepared at a concentration of 2 mg/ml in DMSO for dilution into Neilands' media. According to reported information, nystatin should be effective at 1.5 to 6.5 µg/ml; therefore, 0, 0.5, 1, 5, 10 and 50 µg/ml were used as the final concentrations. Hygromycin gold stock was in solution at 100 mg/ml, and 0, 25, 50, 100, 150 and 200 µg/ml were used as the final concentrations in Neilands' medium. Plates were incubated for 3 days at 37° C. with shaking.
# To test for siderophores, 20 μL of a solution of 2 mM FeCl3 in 10 mM HCl was added to each well in the receiver plates and the A440 was recorded on a plate reader. […] An increase in A440 indicates a more intense orange-red colour that develops in the presence of ferrated siderophores. […] Because 3-day incubation produces conidia, shorter incubation periods may be preferable.
# Three identical plates were set up: one filter plate and two sterile clear 96-well plates. The clear plates were used to score growth, and the filter plate was used to detect siderophores. Columns 1-6 contained Neilands' medium without citrate and amphotericin 0-2 at g/ml. Columns 7-12 contained Neilands' medium with citrate and amphotericin at […]. The rows were set up with A. fumigatus as described above, but two sets of each were set up to be in the two plates. The spores from the previous experiment were stored at −20° C. in PBS, in siliconized tubes, at 2×10^8 conidia/ml, to facilitate these experiments. Plates were incubated for 48 hours at 37° C. without shaking.
# The filter plate was centrifuged at 1000×g for 10 minutes and the liquids caught in a clear non-sterile plate, to which FeCl3 was added. The plate was allowed to sit and develop orange colour, and was then read at 440 nm. The clear plates (one without Fe and one with Fe added to growth medium from the beginning) were read at 600 nm (A600). In the result, iron enhanced conidiation. Some wells of the filter plate were lightly conidiated and would not drain. These were hand pipetted.
# [7] = 1 ml GA, 4 days 37° C., 5 μM FeCl3
# [8] = 1 ml GA, 96 hours, FeCl3 5 μM or ferrated TAF 10 μM
# [9] = 5 ml GA medium, 4 days 37° C., 5 μM FeCl3 or 10 μM TAF
# [10] = 1 ml GA + 5 μM FeCl3 + 10% serum, 50 μM desferri-TAF or desferri-ferricrocin, 4 days
# [11] = GA + FeCl3 + 10% human serum, desferrisiderophore 50 μM
molecule,measurement,setting,value
[Cl][Fe]([Cl])[Cl] [FeCl3],"dry weight, parental",[1]; [7],7.8^1 mg
same,"Growth (mg dry weight) mean ± S.D., wild type",[1]; [8],6.5 ± 0.4 mg dry weight
same,"dry weight, parental",[1]; [9],44.3^1 mg
same,Mean mycelial dry wt after 96 h,[2],0.80^1 mg
same,"Growth (mg dry weight) mean ± S.D., ΔsidAR",[3]; [8],7.5 ± 0.3 mg dry weight
same,"dry weight, ΔsidA",[4]; [7],7.1^1 mg
same,"Growth (mg dry weight) mean ± S.D., ΔsidA",[4]; [8],1.4 ± 1.1 mg dry weight
same,"dry weight, ΔsidA",[4]; [9],47.4^1 mg
"CC(=O)NC1CCCN(O)C(=O)/C=C(/C)CCOC(=O)C(NC(C)=O)CCCN(O)C(=O)/C=C(/C)CCOC(=O)C(NC(C)=O)CCCN(O)C(=O)/C=C(/C)CCOC1=O (stereo not drawn) [TAF, N′,N″,N′″-triacetylfusarinine C]","dry weight, parental",[1]; [10],9.7^1 mg
same,"Growth (mg dry weight) mean ± S.D., wild type",[1]; [8],6.2 ± 0.5 mg dry weight
same,"dry weight, parental",[1]; [9],41^1 mg
same,"Growth (mg dry weight) mean ± S.D., ΔsidAR",[3]; [8],6.0 ± 0.1 mg dry weight
same,Affinity of iron removal from holotransferrin,[5],comparable to that of ferrichrome
same,"dry weight, ΔsidA",[4]; [10],7.2^1 mg
same,"Growth (mg dry weight) mean ± S.D., ΔsidA",[4]; [8],4.4 ± 1.5 mg dry weight
same,"dry weight, ΔsidA",[4]; [9],46^1 mg
same,Stability in human serum,,stable in human serum
"CC(=O)NC1CCCN(O)C(=O)C=C(C)CCOC(=O)C(NC(C)=O)CCCN(O)C(=O)C=C(C)CCOC(=O)C(NC(C)=O)CCCN(O)C(=O)C=C(C)CCOC1=O (stereo not drawn) [desferri-TAF, Desferritriacetylfusarinine C]","Growth (mg dry weight) mean ± S.D., wild type",[1]; [11],10.1 ± 0.4 mg dry weight
same,"Growth (mg dry weight) mean ± S.D., ΔsidAR",[3]; [11],11.3 ± 0.3 mg dry weight
same,Concentration able to remove some iron from holotransferrin,[5],500 µM
same,Concentration at which complete absence of holotransferrin was observed,[5],5 mM
same,Restoration of growth of ΔsidA in the presence of human serum,[4],restored to wild-type levels
same,"Growth (mg dry weight) mean ± S.D., ΔsidA",[4]; [11],12.3 ± 1.2 mg dry weight
CC(=O)N(O)CCCC1NC(=O)CNC(=O)CNC(=O)CNC(=O)C(CCCN(O)C(C)=O)NC(=O)C(CCCN(O)C(C)=O)NC1=O (stereo not drawn) [desferriferrichrome] (cyclo(GGG[ξOrn(N(OH)Ac)][ξOrn(N(OH)Ac)][ξOrn(N(OH)Ac)])),Concentration at which complete absence of holotransferrin was observed,[5],5 mM
"CC(=O)N(O)CCC[C@@H]1NC(=O)CNC(=O)[C@H](CO)NC(=O)CNC(=O)[C@H](CCCN(O)C(C)=O)NC(=O)[C@H](CCCN(O)C(C)=O)NC1=O [desferriferricrocin] (cyclo(GSG[Orn(N5-OH,N5-Ac)][Orn(N5-OH,N5-Ac)][Orn(N5-OH,N5-Ac)]))","Growth (mg dry weight) mean ± S.D., wild type",[1]; [11],9.7 ± 2.00 mg dry weight
same,"Growth (mg dry weight) mean ± S.D., ΔsidAR",[3]; [11],11.0 ± 1.2 mg dry weight
same,Concentration able to remove some iron from holotransferrin,[5],500 µM
same,Concentration at which complete absence of holotransferrin was observed,[5],5 mM
same,Restoration of growth of ΔsidA in the presence of human serum,[4],restored to wild-type levels
same,"Growth (mg dry weight) mean ± S.D., ΔsidA",[4]; [11],11.1 ± 1.1 mg dry weight
"CC(=O)N([O-])CCC[C@@H]1NC(=O)CNC(=O)[C@H](CO)NC(=O)CNC(=O)[C@H](CCCN([O-])C(C)=O)NC(=O)[C@H](CCCN([O-])C(C)=O)NC1=O.[Fe+3] [ferricrocin] (cyclo(GSG[Orn(N5-OH,N5-Ac)][Orn(N5-OH,N5-Ac)][Orn(N5-OH,N5-Ac)]))","dry weight, parental",[1]; [10],11.1^1 mg
same,Affinity of iron removal from holotransferrin,[5],comparable to that of ferrichrome
same,"dry weight, ΔsidA",[4]; [10],11.0^1 mg
C[C@@H]1[C@H](O)[C@@H](C)/C=C/C=C/CC/C=C/C=C/C=C/C=C/C(O[C@H]2O[C@H](C)[C@@H](O)[C@H](N)[C@@H]2O)CC2O[C@](O)(CC(O)C(O)CCC(O)CC(O)CC(O)CC(=O)O[C@H]1C)CC(O)C2C(=O)O (stereo partly drawn) [nystatin],A440 (ferrated siderophores),"[6]; nystatin 0.5 μg/ml, 100000 spores/ml",0.341 and 0.414 and 0.359
same,A440 (ferrated siderophores),"[6]; nystatin 0.5 μg/ml, 1000000 spores/ml",0.416 and 0.382 and 0.232
same,A440 (ferrated siderophores),"[6]; nystatin 1 μg/ml, 100000 spores/ml",0.340 and 0.31 and 0.325
same,A440 (ferrated siderophores),"[6]; nystatin 1 μg/ml, 1000000 spores/ml",0.412 and 0.492 and 0.329
same,A440 (ferrated siderophores),"[6]; nystatin 5 μg/ml, 100000 spores/ml",0.048 and 0.042 and 0.044
same,A440 (ferrated siderophores),"[6]; nystatin 5 μg/ml, 1000000 spores/ml",0.042 and 0.043
same,A440 (ferrated siderophores),"[6]; nystatin 10 μg/ml, 100000 spores/ml",0.043 and 0.045 and 0.042
same,A440 (ferrated siderophores),"[6]; nystatin 10 μg/ml, 1000000 spores/ml",0.042 and 0.043 and 0.050
same,A440 (ferrated siderophores),"[6]; nystatin 50 μg/ml, 100000 spores/ml",0.048 and 0.052 and 0.051
same,A440 (ferrated siderophores),"[6]; nystatin 50 μg/ml, 1000000 spores/ml",0.048 and 0.051
Apotransferrin: iron-free human transferrin,Mean mycelial dry wt after 96 h,[2],0.02^1 mg
Holotransferrin: purified human iron-saturated transferrin,Mean mycelial dry wt after 96 h,[2],1.30^1 mg
